How the values were obtained:
Format in all cases: in vivo
[1] = tested on: CYPERUS SEROTINUS, ROTTB.; assay: Preemergence weed control under flooded paddy conditions, CYPSE (Flatsedge); settings: preemergence, 3-4 weeks after treatment
In short: (§1)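 Visual 0-9 score (stand, vigor, malformation, size, chlorosis, appearance vs untreated control) taken 3-4 wk after treatment. Test compounds were added into flood water (1.5-3 cm over silt loam) as 50/50 v/v aqueous/acetone, equivalent to about 0.5-0.063 kg/ha a.i.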

[2] = tested on: ORYZA SATIVA, L. TEBONNET; assay: Rice tolerance to post-transplant applications under flooded paddy conditions, ORYSAT (Rice, Tebonnet); settings: post-transplant rice; for Herbicidal effect rating, ORYSAT: 3-4 weeks after treatment; for ORYSAT herbicidal rating (rice tolerance): rated three to four weeks after treatment;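 on ORYSAT herbicidal rating (rice tolerance): applied to flooded soil surface three days after transplanting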
In short: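 Visual 0-9 rating against untreated control (stand, vigor, malformation, size, chlorosis, overall appearance), taken 3-4 weeks after treatment. Flooded silt loam, water at 1.5-3 cm; two 10-day-old seedlings per pot; compound applied to flooded soil surface 3 days post-transplant at ~0.5-0.063 kg/ha.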

[3] = tested on: GALIUM APARINE; assay: Preemergence herbicidal evaluation, GALAP (Galium); settings: Rate 0.500 kg/ha, rated four to five weeks after treatment
Description: (§2) Results of herbicide evaluation are expressed on a rating scale (0-9). The scale is based upon a visual observation of plant stand, vigor, malformation, size, chlorosis and overall plant appearance as compared with a control.
(§3) The preemergence herbicidal activity of the test compounds of the present invention is exemplified by the following tests in which the seeds of a variety of monocotyledonous and dicotyledonous plants are separately mixed with potting soil and planted on top of approximately one inch of soil in separate pint cups. […] The treated cups are then placed on greenhouse benches, watered and cared for in accordance with conventional greenhouse procedures. From four to five weeks after treatment, the tests are terminated and each cup is examined and rated according to the rating system provided in Example 40.
(§4) The compounds evaluated are reported by compound number given in Example 40.

[4] = tested on: GLYCINE MAX(L) MERR. CV. WILLIAMS; assay: Postemergence herbicidal evaluation, GLXMAW (Soybean, Williams); settings: crop, rated four to five weeks after treatment, averaged
Procedure: (§5) In the tests, seedling plants are grown in jiffy flats for about two weeks. The test compounds are dispersed in 50/50 acetone/water mixtures containing 0.5% TWEEN®20, a polyoxyethylene sorbitan monolaurate surfactant of Atlas Chemical Industries, in sufficient quantities to provide the equivalent of about 0.125 kg to 0.500 kg per hectare of active compound when applied to the plants through a spray nozzle operating at 40 psi for a predetermined time. After spraying, the plants are placed on greenhouse benches and are cared for in the usual manner, commensurate with conventional greenhouse practices. From four to five weeks after treatment, the seedling plants are examined and rated according to the rating system set forth below. Where more than one test is involved for a given compound, the data are averaged.
(§6) Plant species employed in these evaluations are reported by header abbreviation, common name and scientific name.
as §2

[5] = tested on: CASSIA OBTUSIFOLIA, L.; assay: Preemergence herbicidal evaluation, CASOB (Sicklepod); settings: Rate 0.500 kg/ha, rated four to five weeks after treatment
Description: as §2, §3, §4

[6] = tested on: SAGITTARIA PYGMAEA, L.; assay: Preemergence weed control under flooded paddy conditions, SAGPY (Arrowhead (Pygmaea)); settings: preemergence, 3-4 weeks after treatment
In short: as §1

[7] = tested on: CHENOPODIUM ALBUM, L.; assay: Postemergence herbicidal evaluation, CHEAL (Lambsquarters, Common); settings: rated four to five weeks after treatment, averaged
In short: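 Postemergence herbicidal activity on Chenopodium album was tested by spraying two-week-old seedlings grown in jiffy flats with compound in acetone/water (50/50) plus 0.5% TWEEN®20, using a 40 psi nozzle. Four to five weeks after treatment, stand, vigor, malformation, size, chlorosis and overall appearance were scored 0-9 relative to controls, with repeat tests averaged.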

[8] = tested on: ECHINOCHLOA ORYZOIDES (ARD.)FRITSCH; assay: Preemergence weed control under flooded paddy conditions, ECHORC (Watergrass (Calif.)); settings: for ECHORC herbicidal rating: preemergence weeds, rated three to four weeks after treatment
In short: as §1

[9] = tested on: CHENOPODIUM ALBUM, L.; assay: Preemergence herbicidal evaluation, CHEAL (Lambsquarters, Common); settings: four to five weeks after treatment
In short: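 Rated 0-9 by visual comparison with control (stand, vigor, malformation, size, chlorosis, overall appearance) four to five weeks after preemergence soil spray. Dose equivalent to about 0.125 to 0.50 kg per hectare, applied in aqueous acetone to freshly seeded cups kept in greenhouse.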

[10] = tested on: ABUTILON THEOPHRASTI, MEDIC.; assay: Postemergence herbicidal evaluation, ABUTH (Velvetleaf); settings: rated four to five weeks after treatment, averaged
In short: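 This postemergence herbicide test used two-week-old velvetleaf seedlings grown in jiffy flats. Each compound was sprayed at 40 psi as a dispersion in 50/50 acetone/water with 0.5% TWEEN®20 surfactant. Plants then received routine greenhouse care. After four to five weeks, injury was scored visually on a 0-9 scale against a control, and replicate tests were averaged.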

[11] = tested on: AMBROSIA ARTEMISIIFOLIA, L.; assay: Preemergence herbicidal evaluation, AMBEL (Ragweed, Common); settings: four to five weeks after treatment
Description: as §2, §3, §4

[12] = tested on: […], PRESL.; assay: Preemergence weed control under flooded paddy conditions, MOOVA (Monochoria); settings: for MOOVA herbicidal rating: preemergence weeds, rated three to four weeks after treatment
In short: as §1

[13] = tested on: CYPERUS IRIA; assay: Preemergence weed control under flooded paddy conditions, CYPIR (Rice Flatsedge); settings: for CYPIR herbicidal rating: preemergence weeds, rated three to four weeks after treatment
Procedure: as §2
Preemergence herbicidal activity under flooded paddy conditions is determined as follows: plant seeds or propagating organs are planted in the top 0.5 cm of silt loam soil in 32 oz. plastic containers with a diameter of 10.5 cm and no drainage holes. Water is added to these containers and maintained at 1.5 to 3 cm above the soil surface for the duration of the experiment. […] The treated containers are placed on greenhouse benches and cared for according to normal greenhouse procedures.- Three to four weeks after treatment the test is terminated and each container is examined and herbicidal effect rated according to the rating system provided in Example 40. The compounds evaluated are reported by compound number given in Example 40.
Plant species employed in this example are reported by header abbreviation, common name and scientific name.

[14] = tested on: SETARIA VIRIDIS, (L) BEAU; assay: Postemergence herbicidal evaluation, SETVI (Foxtail, Green); settings: rated four to five weeks after treatment, averaged
In short: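 Each value is a 0–9 visual rating of plant appearance compared with control, recorded 4–5 weeks after a 0.125–0.500 kg/ha spray, with multiple tests averaged.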

[15] = tested on: ECHINOCHLOA CRUS-GALLI, (L) BEAU; assay: Postemergence herbicidal evaluation, ECHCG (Barnyardgrass); settings: rated four to five weeks after treatment, averaged
Procedure: as §5, §6, §2

[16] = tested on: GALIUM APARINE; assay: Postemergence herbicidal evaluation, GALAP (Galium); settings: rated four to five weeks after treatment, averaged
In short: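 In this postemergence greenhouse test, two-week-old Galium aparine seedlings grown in jiffy flats received a 40 psi spray of compound in acetone/water (50/50) with 0.5% TWEEN®20 surfactant. After four to five weeks, stand, vigor, malformation, size, chlorosis and overall appearance were compared with untreated controls on a 0-9 scale, averaging multiple tests.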

[17] = 0.500 kg/ha, preemergence, 3-4 weeks after treatment

## COC(=O)Cn1c(=O)n(C)c(=O)n(-c2cc(Oc3ccc(F)cc3C(F)(F)F)ccc2[N+](=O)[O-])c1=O [Compound 21]
[1]; 0.063 kg/ha
  Herbicidal effect rating, CYPSE: 0.0
[1]; 0.125 kg/ha
  Herbicidal effect rating, CYPSE: 0.0
[1]; 0.250 kg/ha
  Herbicidal effect rating, CYPSE: 0.0
[1]; 0.500 kg/ha
  Herbicidal effect rating, CYPSE: 0.0
[2]; 0.063 kg/ha
  Herbicidal effect rating, ORYSAT: 0.0
[2]; 0.125 kg/ha
  Herbicidal effect rating, ORYSAT: 0.0
[2]; 0.250 kg/ha
  Herbicidal effect rating, ORYSAT: 0.0
[2]; 0.500 kg/ha
  Herbicidal effect rating, ORYSAT: 0.5
[3]
  GALAP herbicidal rating: 9.0
[4]; Rate 0.125 kg/ha
  GLXMAW, herbicide rating (0-9): 4.0
[4]; Rate 0.250 kg/ha
  GLXMAW, herbicide rating (0-9): 4.0
[4]; Rate 0.500 kg/ha
  GLXMAW, herbicide rating (0-9): 4.0
[5]
  CASOB herbicidal rating: 7.0
[6]; 0.063 kg/ha
  Herbicidal effect rating, SAGPY: 0.0
[6]; 0.125 kg/ha
  Herbicidal effect rating, SAGPY: 0.0
[6]; 0.250 kg/ha
  Herbicidal effect rating, SAGPY: 0.0
[6]; 0.500 kg/ha
  Herbicidal effect rating, SAGPY: 0.0

## COC(=O)C(C)n1c(=O)n(C)c(=O)n(-c2cc(Oc3c(F)cc(C(F)(F)F)cc3Cl)ccc2Br)c1=O (stereo not drawn) [Compound 1, Methyl 3-{2-bromo-5-[(2-chloro-α,α,α,6-tetrafluoro-p-tolyl)oxy]phenyl}tetrahydro-α,5-dimethyl-2,4,6-trioxo-s-triazine-1(2H)-acetate]
[7]; Rate 0.125 kg/ha
  CHEAL, herbicide rating (0-9): 9.0
[7]; Rate 0.250 kg/ha
  CHEAL, herbicide rating (0-9): 9.0
[7]; Rate 0.500 kg/ha
  CHEAL, herbicide rating (0-9): 9.0
[8]; Rate 0.125 kg/ha
  ECHORC herbicidal rating: 9.0
[8]; Rate 0.250 kg/ha
  ECHORC herbicidal rating: 9.0
[8]; Rate 0.500 kg/ha
  ECHORC herbicidal rating: 9.0
[2]; Rate 0.125 kg/ha
  ORYSAT herbicidal rating (rice tolerance): 1.0
[2]; Rate 0.250 kg/ha
  ORYSAT herbicidal rating (rice tolerance): 2.0
[2]; Rate 0.500 kg/ha
  ORYSAT herbicidal rating (rice tolerance): 3.0
[9]; Rate 0.125 kg/ha
  CHEAL rating: 9.0
[9]; Rate 0.250 kg/ha
  CHEAL rating: 9.0
[9]; Rate 0.500 kg/ha
  CHEAL rating: 9.0
[10]; Rate 0.125 kg/ha
  ABUTH, herbicide rating (0-9): 9.0
[10]; Rate 0.250 kg/ha
  ABUTH, herbicide rating (0-9): 9.0
[10]; Rate 0.500 kg/ha
  ABUTH, herbicide rating (0-9): 9.0
[11]; Rate 0.125 kg/ha
  AMBEL rating: 0.0
[11]; Rate 0.250 kg/ha
  AMBEL rating: 0.0
[11]; Rate 0.500 kg/ha
  AMBEL rating: 0.0
[12]; Rate 0.125 kg/ha
  MOOVA herbicidal rating: 9.0
[12]; Rate 0.250 kg/ha
  MOOVA herbicidal rating: 9.0
[12]; Rate 0.500 kg/ha
  MOOVA herbicidal rating: 9.0
[13]; Rate 0.125 kg/ha
  CYPIR herbicidal rating: 9.0
[13]; Rate 0.250 kg/ha
  CYPIR herbicidal rating: 9.0
[13]; Rate 0.500 kg/ha
  CYPIR herbicidal rating: 9.0

## COC(=O)Cn1c(=O)n(C)c(=O)n(-c2cc(Oc3ccc([N+](=O)[O-])cc3F)ccc2[N+](=O)[O-])c1=O [Compound 24, Methyl 3-[5-(2-fluoro-4-nitrophenoxy)-2-nitrophenyl]tetrahydro-5-methyl-2,4,6-trioxo-s-triazine-1(2H)-acetate]
[1]; 0.500 kg/ha
  Herbicidal effect rating, CYPSE: 0.0
[14]; Rate 0.125 kg/ha
  SETVI, herbicide rating (0-9): 0.0
[14]; Rate 0.250 kg/ha
  SETVI, herbicide rating (0-9): 0.0
[14]; Rate 0.500 kg/ha
  SETVI, herbicide rating (0-9): 0.0
[8]; [17]
  Herbicidal effect rating, ECHORC: 0.0
[2]; 0.500 kg/ha
  Herbicidal effect rating, ORYSAT: 0.0
[15]; Rate 0.125 kg/ha
  ECHCG, herbicide rating (0-9): 0.0
[15]; Rate 0.250 kg/ha
  ECHCG, herbicide rating (0-9): 0.0
[15]; Rate 0.500 kg/ha
  ECHCG, herbicide rating (0-9): 0.0
[3]
  GALAP herbicidal rating: 0.0
[16]; Rate 0.125 kg/ha
  GALAP, herbicide rating (0-9): 2.0
[16]; Rate 0.250 kg/ha
  GALAP, herbicide rating (0-9): 2.0
[16]; Rate 0.500 kg/ha
  GALAP, herbicide rating (0-9): 2.0
[12]; [17]
  Herbicidal effect rating, MOOVA: 0.0
[5]
  CASOB herbicidal rating: 0.0
[6]; 0.500 kg/ha
  Herbicidal effect rating, SAGPY: 0.0
[13]; [17]
  Herbicidal effect rating, CYPIR: 0.0

Source: EP0745595A1, “3-(3-Aryloxyphenyl)-1-(substituted methyl)-s-triazine-2,4,6-oxo or thiotrione herbicidal agents” (American Cyanamid Company, priority 1995, dated 1996)
